Laboratory results taken from PMC5995566 (Biochemistry, 2017).
No end group written: not given here.

Columns and labels:
human S100A5 (hA5) = target: T1, human S100A5 (hA5) (Homo sapiens, UniProt P33763); assay: ITC of peptide binding to human S100A5; details: 2 mM CaCl2, pH 7.4
T1 sequence (P33763 1-92): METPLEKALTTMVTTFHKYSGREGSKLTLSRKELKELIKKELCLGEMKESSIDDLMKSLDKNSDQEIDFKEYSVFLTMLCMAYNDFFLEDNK

human S100A6 (hA6) = human S100A6 (hA6) (Homo sapiens, UniProt P06703); assay: ITC of peptide binding to human S100A6; details: single-site model
hA5 A83m = assay: ITC of peptide binding to hA5 A83m mutant; parameters: species or system Homo sapiens; details: single ancestral reversion in hA5
S100A6 orthologs = assay: ITC of peptide binding to S100A6 orthologs; details: 2 mM CaCl2, pH 7.4
[1] = test system: ancA6 (last common ancestor of S100A6 orthologs); assay: ITC of peptide binding to reconstructed ancestor ancA6

binding to hA5 (in words) (human S100A5 (hA5)): did not bind
fx comp (human S100A6 (hA6); ITC fit parameter, same buffer): 1.5 ± 0.1
ΔH° (human S100A6 (hA6); ITC, 25 mM TES, 100 mM NaCl, 2 mM CaCl2, 1 mM TCEP, pH 7.4, Bayesian fit): 2.9 ± 0.3 kcal/mol
binding to hA5 A83m (in words) (hA5 A83m): enabled it to bind
binding to all S100A6 orthologs (in words) (S100A6 orthologs): bound
binding to ancA6 (in words) [1]: binding
Sequence: SEGLMNVLKKIYEDGDDDMKRTINKAWVESR [SIP]
